Measurements: article PMC10674166, “Sustainable Immobilization of β-Glucosidase onto Silver Ions and AgNPs-Loaded Acrylic Fabric with Enhanced Stability and Reusability” (Polymers, 2023)

Test system: T1, β-glucosidase from almonds (β-Glu)
T1 construct: gene AH; free enzyme
Experiment: p-nitrophenol release at […] nm, Lineweaver-Burk
Type: biochemical
Conditions: free enzyme; standard assay 0.1 M sodium acetate pH 6.0, 37 °C (pH and temperature of the kinetic runs not restated); apparent constant

Molecule `O=[N+]([O-])c1ccc(O[C@@H]2O[C@H](CO)[C@@H](O)[C@H](O)[C@H]2O)cc1` [p-nitrophenyl-β-D-glucopyranoside] has a Km of 2600 µM.
